Test results published in ChEMBL document CHEMBL5505983, “Design, synthesis, and molecular modeling studies of novel 2-quinolone-1,2,3-triazole-α-aminophosphonates hybrids as dual antiviral and antibacterial agents” (Eur J Med Chem, 2024).
≈ marks a conversion by molar mass, not a printed value.

How the values were obtained:
Yellow fever virus = experiment: Antiviral activity against Yellow fever virus infected in human Huh-7 cells assessed as inhibition of cytopathic effect by microscopy based analysis; type: functional, organism-based
[1] = Cytotoxicity against human Huh-7 cells; type: toxicity, cell-based
[2] = Selectivity index, ratio of CC50 for human Huh-7 cells to IC50 for Yellow fever virus infected in human Huh-7 cells; type: toxicity, cell-based; conditions: read-out: Ratio CC50/IC50
Zika virus = experiment: Antiviral activity against Zika virus infected in african green monkey Vero E6 cells assessed as inhibition of cytopathic effect by microscopy based analysis; type: functional, organism-based; conditions: Vero C1008
[3] = Cytotoxicity against African green monkey Vero E6 cells; type: toxicity, cell-based, Vero C1008; conditions: chlorocebus sabaeus
Chikungunya virus = experiment: Antiviral activity against CHIKV infected in African green monkey Vero A cells assessed as inhibition of cytopathic effect by microscopy based analysis; type: functional, organism-based
[4] = Cytotoxicity against African green monkey Vero A cells; type: toxicity, cell-based; conditions: chlorocebus sabaeus
Enterovirus A71 = experiment: Antiviral activity against human EV71 infected in human RD cells assessed as inhibition of cytopathic effect by microscopy based analysis; type: functional, organism-based; conditions: Enterovirus A
[5] = Cytotoxicity against human RD cells; type: toxicity, cell-based
Human rhinovirus sp. [6] = experiment: Antiviral activity against Human rhinovirus B14 infected in human HeLa-RH cells assessed as inhibition of cytopathic effect by microscopy based analysis; type: functional, organism-based
[7] = Cytotoxicity against human HeLa-RH cells; type: toxicity, cell-based
Human rhinovirus sp. [8] = experiment: Antiviral activity against Human rhinovirus A2 infected in human HeLa-RH cells assessed as inhibition of cytopathic effect by microscopy based analysis; type: functional, organism-based
Escherichia coli [9] = experiment: Antibacterial activity against Escherichia coli CIP 53154 assessed as reduction in bacterial growth by micro-broth dilution method; type: functional
Escherichia coli [10] = experiment: Bactericidal activity against Escherichia coli CIP 53154; type: functional
Pseudomonas aeruginosa [11] = experiment: Antibacterial activity against Pseudomonas aeruginosa CIP A22 assessed as reduction in bacterial growth by micro-broth dilution method; type: functional
Pseudomonas aeruginosa [12] = experiment: Bactericidal activity against Pseudomonas aeruginosa CIP A22; type: functional
Staphylococcus aureus [13] = experiment: Antibacterial activity against Staphylococcus aureus CIP 54127 assessed as reduction in bacterial growth by micro-broth dilution method; type: functional
Staphylococcus aureus [14] = experiment: Bactericidal activity against Staphylococcus aureus CIP 54127; type: functional
Enterococcus faecalis [15] = experiment: Antibacterial activity against Enterococcus faecalis assessed as reduction in bacterial growth by micro-broth dilution method; type: functional
Enterococcus faecalis [16] = experiment: Bactericidal activity against Enterococcus faecalis; type: functional
Escherichia coli [17] = experiment: Ratio of MBC to MIC for Escherichia coli CIP 53154; type: functional
Pseudomonas aeruginosa [18] = experiment: Ratio of MBC to MIC for Pseudomonas aeruginosa CIP A22; type: functional
Staphylococcus aureus [19] = experiment: Ratio of MBC to MIC for Staphylococcus aureus CIP 54127; type: functional
Enterococcus faecalis [20] = experiment: Ratio of MBC to MIC for Enterococcus faecalis; type: functional
[21] = Selectivity index, ratio of CC50 for African green monkey Vero A cells to IC50 for CHIKV infected in African green monkey Vero A cells; type: toxicity; conditions: read-out: Ratio CC50/IC50
[22] = Selectivity index, ratio of CC50 for human HeLa-RH cells to IC50 for Human rhinovirus B14 infected in human HeLa-RH cells; type: toxicity, cell-based; conditions: read-out: Ratio CC50/IC50

Row | SMILES | IC50 (Yellow fever virus) | CC50 [1] | IC50 (Zika virus) | CC50 [3] | IC50 (Chikungunya virus) | CC50 [4] | IC50 (Enterovirus A71) | CC50 [5] | IC50 (Human rhinovirus sp. [6]) | CC50 [7] | IC50 (Human rhinovirus sp. [8]) | MIC (Escherichia coli [9]) | MBC (Escherichia coli [10]) | MIC (Pseudomonas aeruginosa [11]) | MBC (Pseudomonas aeruginosa [12]) | MIC (Staphylococcus aureus [13]) | MBC (Staphylococcus aureus [14]) | MIC (Enterococcus faecalis [15]) | MBC (Enterococcus faecalis [16]) | Ratio (Escherichia coli [17]) | other results
1 | CCOP(=O)(OCC)C(Nc1ccccc1Cl)c1cc(Cn2cc(Cn3c(=O)cc(C)c4cc(F)ccc43)nn2)ccc1O (stereo not given) | 10.3 µM | 31 µM | > 100 µM | 28.1 µM | > 100 µM | 7 µM | > 100 µM | > 100 µM | > 100 µM | 12.5 µM | > 410 nM | 2020 µM (≈ 1290 µg/mL) | 4030 µM (≈ 2580 µg/mL) | 4.03 mM (≈ 2580 µg/mL) | 4.03 mM (≈ 2580 µg/mL) | 130 µM (≈ 83.2 µg/mL) | 260 µM (≈ 166 µg/mL) | 30 µM (≈ 19.2 µg/mL) | 30 µM (≈ 19.2 µg/mL) | 2 | selectivity ratio [2]: 3.01; Ratio (Pseudomonas aeruginosa [18]): 1; Ratio (Staphylococcus aureus [19]): 2; Ratio (Enterococcus faecalis [20]): 1
2 | CCOP(=O)(OCC)C(Nc1ccccc1OC)c1cc(Cn2cc(Cn3c(=O)cc(C)c4cc(Br)ccc43)nn2)ccc1O (stereo not given) | > 100 µM | 51.2 µM | > 100 µM | > 100 µM | 81.6 µM | > 100 µM | > 100 µM | > 33.3 µM | > 100 µM | > 33.3 µM | > 410 nM | 900 µM (≈ 627 µg/mL) | 1790 µM (≈ 1250 µg/mL) | 3.59 mM (≈ 2500 µg/mL) | 3.59 mM (≈ 2500 µg/mL) | 230 µM (≈ 160 µg/mL) | 450 µM (≈ 313 µg/mL) | 110 µM (≈ 76.6 µg/mL) | 110 µM (≈ 76.6 µg/mL) | 1.99 | selectivity ratio [21]: > 1.23; Ratio (Pseudomonas aeruginosa [18]): 2.01; Ratio (Staphylococcus aureus [19]): 1.96; Ratio (Enterococcus faecalis [20]): 1
3 | CCOP(=O)(OCC)C(Nc1ccccc1Br)c1cc(Cn2cc(Cn3c(=O)cc(C)c4ccccc43)nn2)ccc1O (stereo not given) | 9.94 µM | 30.1 µM | > 100 µM | > 100 µM | 9.4 µM | 23.4 µM | > 100 µM | 70.2 µM | > 100 µM | 45.7 µM | > 1230 nM | 470 µM (≈ 313 µg/mL) | 470 µM (≈ 313 µg/mL) | 3.75 mM (≈ 2500 µg/mL) | 3.75 mM (≈ 2500 µg/mL) | 120 µM (≈ 80 µg/mL) | 120 µM (≈ 80 µg/mL) | 60 µM (≈ 40 µg/mL) | 60 µM (≈ 40 µg/mL) | 1 | selectivity ratio [2]: 3.03; selectivity ratio [21]: 2.49; Ratio (Pseudomonas aeruginosa [18]): 1.99; Ratio (Staphylococcus aureus [19]): 1; Ratio (Enterococcus faecalis [20]): 1
4 | Cc1cc(=O)n(Cc2cn(Cc3ccc(O)c(C=O)c3)nn2)c2ccccc12 | > 100 µM | 37.5 µM | > 100 µM | 57.5 µM | 95.7 µM | > 100 µM | > 33.3 µM | 27.1 µM | > 100 µM | 11.4 µM | > 1230 nM | 430 µM (≈ 161 µg/mL) | 830 µM (≈ 311 µg/mL) | 26.7 mM (≈ 10000 µg/mL) | 26.7 mM (≈ 10000 µg/mL) | 210 µM (≈ 78.6 µg/mL) | 210 µM (≈ 78.6 µg/mL) | 110 µM (≈ 41.2 µg/mL) | 110 µM (≈ 41.2 µg/mL) | 1.93 | selectivity ratio [21]: > 1.05; Ratio (Pseudomonas aeruginosa [18]): 2; Ratio (Staphylococcus aureus [19]): 1; Ratio (Enterococcus faecalis [20]): 1
5 | CCOP(=O)(OCC)C(Nc1ccccc1)c1cc(Cn2cc(Cn3c(=O)cc(C)c4cc(Br)ccc43)nn2)ccc1O (stereo not given) | > 100 µM | 52 µM | > 100 µM | > 100 µM | 40 µM | > 100 µM | > 100 µM | > 100 µM | 41.1 µM | > 100 µM | > 1230 nM | 950 µM (≈ 633 µg/mL) | 1880 µM (≈ 1250 µg/mL) | 3.75 mM (≈ 2500 µg/mL) | 3.75 mM (≈ 2500 µg/mL) | 240 µM (≈ 160 µg/mL) | 240 µM (≈ 160 µg/mL) | 60 µM (≈ 40 µg/mL) | 120 µM (≈ 80 µg/mL) | 1.98 | selectivity ratio [21]: > 2.5; selectivity ratio [22]: > 2.43; Ratio (Pseudomonas aeruginosa [18]): 1.99; Ratio (Staphylococcus aureus [19]): 1; Ratio (Enterococcus faecalis [20]): 2
6 | CCOP(=O)(OCC)C(Nc1ccc(F)cc1)c1cc(Cn2cc(Cn3c(=O)cc(C)c4cc(F)ccc43)nn2)ccc1O (stereo not given) | > 100 µM | 29.3 µM | > 100 µM | > 100 µM | > 100 µM | > 100 µM | > 100 µM | > 100 µM | > 100 µM | > 100 µM | > 3700 nM | 1010 µM (≈ 630 µg/mL) | 1010 µM (≈ 630 µg/mL) | 8.02 mM (≈ 5000 µg/mL) | 8.02 mM (≈ 5000 µg/mL) | 500 µM (≈ 312 µg/mL) | 500 µM (≈ 312 µg/mL) | 130 µM (≈ 81.1 µg/mL) | 130 µM (≈ 81.1 µg/mL) | 1 | Ratio (Pseudomonas aeruginosa [18]): 2; Ratio (Staphylococcus aureus [19]): 1; Ratio (Enterococcus faecalis [20]): 1
